From patent publication US11701336B2, “Method of determining composition effective for treating diabetes” (priority 2015, dated 2023)

Legend:
[1] = system: diabetic patients; assay: Cancer in patients during diabetes mellitus treatment (survey and case reports); format: in vivo, human; conditions: person
Description: On the other hand, it is widely known that the insulin itself may increase the risk of the cancer and many cancer patients can be found in the patients of the diabetes mellitus.

[2] = confirmed by manufacturers; cited from earlier work
[3] = system: diabetic patients; assay: Blood glucose of the patient (casual, postprandial, glycemic control); format: in vivo, human
[4] = system: diabetic patients; assay: HbA1c (glycated hemoglobin) of the patient under the prescription; format: in vivo, human; conditions: person; May 17, 2016, only the new drug (DPP4 inhibitor), before metformin+BCAA
Description: (1) Step to measure HbA1c and lactate levels in patients
(3) Step to measure changes in HbA1c and lactate levels after administration of the composition to the patient,

[5] = system: diabetic patients; assay: Side effects and clinical course, opinion of the doctor; format: in vivo, human; conditions: person; 4 mg antihypertensive diuretic
Experimental: For each prescription example, the glycemic status of the patient that is dependent on the administered active components and the component amount is measured using HbA1c (glycated hemoglobin) along with changes in the lactic acid value, and opinion of the doctor is recorded together with the change in the values.

N#C[C@@H]1CCCN1C(=O)CNC12CC3CC(CC(O)(C3)C1)C2 [Equa]
Cancer developed during diabetes mellitus treatment ([1]; Case (10)): a bowel cancer was developed

O=C(O)[C@H](CC(=O)N1C[C@H]2CCCC[C@H]2C1)Cc1ccccc1 [GLUFAST]
Lactic acidosis [2]: do not cause lactic acidosis

N[C@@H](CC(=O)N1CCn2c(nnc2C(F)(F)F)C1)Cc1cc(F)c(F)cc1F [JANUVIA, sitagliptin phosphate hydrate]
Cancer developed during diabetes mellitus treatment ([1]; Case (13), treated from 2017, January 2019): A bone cancer was found

Cc1cc(N2CCN([C@@H]3CN[C@H](C(=O)N4CCSC4)C3)CC2)n(-c2ccccc2)n1 [TENELIA]
Cancer developed during diabetes mellitus treatment ([1]; Case (15), dialysis, used until October 2017, April 2019): A lung cancer was developed

CC#CCn1c(N2CCC[C@@H](N)C2)nc2c1c(=O)n(Cc1nc(C)c3ccccc3n1)c(=O)n2C [Trazenta]
Cancer developed during diabetes mellitus treatment ([1]; Case (9), used until October 2018): A vesical cancer was developed
Cancer developed during diabetes mellitus treatment ([1]; Case (11), 5 mg, March 2019): A liver cancer was developed

Cn1c(=O)cc(N2CCC[C@@H](N)C2)n(Cc2cc(F)ccc2C#N)c1=O [Zafatek]
postprandial blood glucose ([3]; person, May 9, 2016, before metformin+BCAA was started): 246 mg/dL
HbA1c [4]: 5.6%

NS(=O)(=O)c1cc2c(cc1Cl)NC(C(Cl)Cl)NS2(=O)=O (stereo not drawn) [fluitran]
Effect on the condition of diabetes mellitus [5]: worsened the condition of diabetes mellitus

CN(C)C(=N)NC(=N)N.Cl [metformin, metformin hydrochloride]
Blood sugar level ([3]; Case (19), metformin 250 mg after HD, as of August 2020): stable
Lung cancer by PET and MRI ([1]; Case (19), metformin 250 mg after HD from May 2019, after radiation therapy, April 2020): reduction of lung cancer was maintained and there was no metastasis

CC(C)[C@H]1CC[C@H](C(=O)N[C@H](Cc2ccccc2)C(=O)O)CC1 [nateglinide]
Lactic acidosis [2]: do not cause lactic acidosis
